{"source": "paper PMC10290117", "about": "“Molecular mechanism of phosphopeptide neoantigen immunogenicity” (Nature Communications, 2023)"}
{"system": "TCR27-AKD10R3 cells", "test": "X-scan (peptide scan), EGFP reporter effector cells", "assay_type": "cell-based, murine", "conditions": "Fig. 1c source data, HLA B*07, T2 cells pulsed with 25 μg peptide per 1 × 10^6 cells, 2 h, 37 °C, effector cells 2:1 overnight, mean value of triplicate", "description": "Tap-deficient T2 (174x CEM.T2) HLA-B*0702+ cells were received from Dr. Victor Engelhard. These and the commercially purchased Tap-deficient T2 (174 x CEM.T2) cells (ATCC CRL 1991) were maintained in RPMI 1640 (BioConcept) supplemented with 10% fetal calf serum (FCS, HyClone), 2mM L-glutamine and 1% Penicillin/Streptomycin at 37 °C and 5% CO2. The EGFP reporter cell line was based on a murine TCR negative thymoma cell line derived from strain BW5417 (ATCC®TIB-47TM) and was stably transduced with (a) TCR27 in which the human constant regions were replaced with those of mouse, (b) a chimeric mouse/human CD8, and (c) an EGFP reporter construct linked to a minimal IL-2 promoter comprising three NFAT-binding sites (3xNFAT)[44]. The transduced cells were termed TCR27-AKD10R3 cells and will be called the effector cells. Mouse cell lines were cultured in SF-IMDM (BioConcept) supplemented with 3% FCS, 1% Penicillin/Streptomycin, and 50 μM beta-mercaptoethanol at 37 °C and 10% CO2.\nPeptides were dissolved in dimethyl sulfoxide (DMSO) at concentrations of 2–20 mg/mL, aliquoted and stored at −80 °C. Peptide-pulsing experiments were performed by pre-incubating T2 cells with 25 μg peptide per 1 × 10^6 cells in PBS for 2 h at 37 °C and 5% CO2, washed three times to remove unbound peptides and used for further downstream analysis. Peptide-pulsed T2 cells were incubated with effector cells in a 2:1 ratio overnight in SF-IMDM at 37 °C and 10% CO2, washed twice and stained with anti-mouse TCR-® chain clone H57-597 (BD Pharmingen #560656, 1:500) for 30 min at RT. Cells were washed twice before FACS-analysis using a BD FACS Canto II with System software v2.0. Data analysis was performed using FlowJo V10 Software. Binding affinity between each peptide and HLA-B*0702 was determined using an Alpha assay. It is a homogenous, proximity-based assay for detection of peptides binding to HLA class I molecules using a conformation-dependent anti-HLA class I antibody, W6/32, as one tag and a biotinylated recombinant HLA class I molecule as the other tag, and a proximity-based signal was generated through the luminescent oxygen channeling immunoassay technology (PerkinElmer) as described.\nTo identify the off-target peptides we have utilized an approach that was developed previously. In brief, we investigated which amino acids at each position in pMLL747–755 enable TCR interaction by sequentially replacing every amino acid position outside of the anchor positions 2 and 9 with all 19 alternative amino acids, resulting in 134 peptides (133 altered peptides plus original epitope). Each peptide was individually evaluated using cell-based in vitro cytotoxicity assay. To represent the TCR recognition kernel, we have defined Position Weight Matrices (PWMs) for each assay by assigning normalized measurements to each of the 20 amino acids in each position. To predict potential off-target peptides, we applied an algorithm projecting the PWM-defined kernel into the human proteome, scoring TCR27 recognition for the predicted HLA-B^*0702 binding 9-mer peptides. Of the 11 peptides with highest predicted cross-reactivity scores, we confirmed that only 2, […] and pDOT1L998–1006, strongly activated the TCR27-expressing effector T cells.", "units": {"Percentage GFP positive from TCR+ cells": "%"}}
{"substance": "PPRsPSHSM [single-residue substitution of pMLL747–755, Pos 1]", "Percentage GFP positive from TCR+ cells": 1.13}
{"substance": "EPRsPQHSM [single-residue substitution of pMLL747–755, Pos 6]", "Percentage GFP positive from TCR+ cells": 0.89}
{"substance": "EPRsPKHSM [single-residue substitution of pMLL747–755, Pos 6]", "Percentage GFP positive from TCR+ cells": 0.87}
{"substance": "EPRsVSHSM [single-residue substitution of pMLL747–755, Pos 5]", "Percentage GFP positive from TCR+ cells": 0.96}
{"substance": "EPRsPSMSM [single-residue substitution of pMLL747–755, Pos 7]", "Percentage GFP positive from TCR+ cells": 1.05}
{"substance": "EPRPPSHSM [single-residue substitution of pMLL747–755, Pos 4]", "Percentage GFP positive from TCR+ cells": 1.21}
{"substance": "EPRsPFHSM [single-residue substitution of pMLL747–755, Pos 6]", "Percentage GFP positive from TCR+ cells": 0.82}
{"substance": "EPRsPSGSM [single-residue substitution of pMLL747–755, Pos 7]", "Percentage GFP positive from TCR+ cells": 0.85}
{"substance": "EPCsPSHSM [single-residue substitution of pMLL747–755, Pos 3]", "Percentage GFP positive from TCR+ cells": 9.53}
{"substance": "EPRsPVHSM [single-residue substitution of pMLL747–755, Pos 6]", "Percentage GFP positive from TCR+ cells": 0.85}
{"substance": "EPRHPSHSM [single-residue substitution of pMLL747–755, Pos 4]", "Percentage GFP positive from TCR+ cells": 0.9}
{"substance": "EPRRPSHSM [single-residue substitution of pMLL747–755, Pos 4]", "Percentage GFP positive from TCR+ cells": 0.98}
{"substance": "EPRsPSVSM [single-residue substitution of pMLL747–755, Pos 7]", "Percentage GFP positive from TCR+ cells": 2.51}
{"substance": "EPRsPSHHM [single-residue substitution of pMLL747–755, Pos 8]", "Percentage GFP positive from TCR+ cells": 3.9}
{"substance": "EPRsASHSM [single-residue substitution of pMLL747–755, Pos 5]", "Percentage GFP positive from TCR+ cells": 0.92}
{"substance": "EPRsGSHSM [single-residue substitution of pMLL747–755, Pos 5]", "Percentage GFP positive from TCR+ cells": 0.96}
{"substance": "TPRsPSHSM [single-residue substitution of pMLL747–755, Pos 1]", "Percentage GFP positive from TCR+ cells": 1.28}
{"substance": "EPRsPSHDM [single-residue substitution of pMLL747–755, Pos 8]", "Percentage GFP positive from TCR+ cells": 5.87}
{"substance": "FPRsPSHSM [single-residue substitution of pMLL747–755, Pos 1]", "Percentage GFP positive from TCR+ cells": 1.43}
{"substance": "EPRsPEHSM [single-residue substitution of pMLL747–755, Pos 6]", "Percentage GFP positive from TCR+ cells": 4.34}
{"substance": "EPRsPSPSM [single-residue substitution of pMLL747–755, Pos 7]", "Percentage GFP positive from TCR+ cells": 0.81}
{"substance": "EPKsPSHSM [single-residue substitution of pMLL747–755, Pos 3]", "Percentage GFP positive from TCR+ cells": 10.3}
{"substance": "EPRVPSHSM [single-residue substitution of pMLL747–755, Pos 4]", "Percentage GFP positive from TCR+ cells": 0.76}
{"substance": "EPRLPSHSM [single-residue substitution of pMLL747–755, Pos 4]", "Percentage GFP positive from TCR+ cells": 1.21}
{"substance": "EPNsPSHSM [single-residue substitution of pMLL747–755, Pos 3]", "Percentage GFP positive from TCR+ cells": 5}
{"substance": "EPRsPGHSM [single-residue substitution of pMLL747–755, Pos 6]", "Percentage GFP positive from TCR+ cells": 1.34}
{"substance": "EPRsPSHYM [single-residue substitution of pMLL747–755, Pos 8]", "Percentage GFP positive from TCR+ cells": 1.1}
{"substance": "EPQsPSHSM [single-residue substitution of pMLL747–755, Pos 3]", "Percentage GFP positive from TCR+ cells": 1.31}
{"substance": "MPRsPSHSM [single-residue substitution of pMLL747–755, Pos 1]", "Percentage GFP positive from TCR+ cells": 1.37}
{"substance": "EPDsPSHSM [single-residue substitution of pMLL747–755, Pos 3]", "Percentage GFP positive from TCR+ cells": 1.12}
